Data on 24 compounds can be found in ChEMBL document CHEMBL1201862, “PubChem BioAssay data set” (2004).

Assay [1] deals with T1, High affinity choline transporter 1 (Homo sapiens, UniProt Q9GZV3).
T1 sequence (Q9GZV3 whole entry): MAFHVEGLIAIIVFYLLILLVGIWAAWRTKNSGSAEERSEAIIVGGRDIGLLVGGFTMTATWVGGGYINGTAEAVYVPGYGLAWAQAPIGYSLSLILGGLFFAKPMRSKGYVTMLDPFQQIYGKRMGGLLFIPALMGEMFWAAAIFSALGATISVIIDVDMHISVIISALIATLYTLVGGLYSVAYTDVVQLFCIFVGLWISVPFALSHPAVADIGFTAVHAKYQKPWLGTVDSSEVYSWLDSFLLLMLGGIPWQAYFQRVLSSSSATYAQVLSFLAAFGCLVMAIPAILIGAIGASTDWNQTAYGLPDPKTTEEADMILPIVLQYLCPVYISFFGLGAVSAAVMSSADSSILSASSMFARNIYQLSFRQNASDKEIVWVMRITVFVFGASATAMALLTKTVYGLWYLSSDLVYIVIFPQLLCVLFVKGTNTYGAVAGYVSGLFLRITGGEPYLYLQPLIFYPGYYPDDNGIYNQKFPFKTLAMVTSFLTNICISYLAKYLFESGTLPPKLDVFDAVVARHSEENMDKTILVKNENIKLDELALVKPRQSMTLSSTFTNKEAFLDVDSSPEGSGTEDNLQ
Kind of assay: CHT inhibitors, dose response, cell-based, 5-point CRC, membrane potential dye (AID 504840). Type of assay: functional.

Assay [2] has as its target T2, Fatty acid synthase (Homo sapiens, UniProt P49327). Kind of assay: FAS thioesterase domain inhibitors, dose response, biochemical, kinetic fluorescence intensity (AID 624326).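 Note: rate of fluorescence rise from hydrolysis of a fluorogenic O-methyl fluorescein ester substrate.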 Type of assay: functional.
Assay [3] has as its target T2, Fatty acid synthase. Briefly: FAS thioesterase domain inhibitors, dose response, biochemical, endpoint fluorescence intensity, uHTS hits (AID 624327).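 Note: fluorescence from hydrolysis of an O-methyl fluorescein acyl ester substrate by the enzyme.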 Type of assay: functional.
Assay [4] addresses Heat shock protein HSP 90-alpha (Homo sapiens, UniProt P07900). Type of assay: functional, organism-based.
Assay [5] addresses T3, Ubiquitin-conjugating enzyme E2 N (Homo sapiens, UniProt P61088).
T3 sequence (P61088 whole entry): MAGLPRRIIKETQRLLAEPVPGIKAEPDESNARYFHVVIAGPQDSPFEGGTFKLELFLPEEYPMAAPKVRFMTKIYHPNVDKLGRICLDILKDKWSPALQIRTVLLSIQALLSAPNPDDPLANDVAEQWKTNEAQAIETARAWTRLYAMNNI
The class given is functional.

Assay [6] addresses T4, Microphthalmia-associated transcription factor (Homo sapiens, UniProt O75030).
T4 sequence (O75030 whole entry): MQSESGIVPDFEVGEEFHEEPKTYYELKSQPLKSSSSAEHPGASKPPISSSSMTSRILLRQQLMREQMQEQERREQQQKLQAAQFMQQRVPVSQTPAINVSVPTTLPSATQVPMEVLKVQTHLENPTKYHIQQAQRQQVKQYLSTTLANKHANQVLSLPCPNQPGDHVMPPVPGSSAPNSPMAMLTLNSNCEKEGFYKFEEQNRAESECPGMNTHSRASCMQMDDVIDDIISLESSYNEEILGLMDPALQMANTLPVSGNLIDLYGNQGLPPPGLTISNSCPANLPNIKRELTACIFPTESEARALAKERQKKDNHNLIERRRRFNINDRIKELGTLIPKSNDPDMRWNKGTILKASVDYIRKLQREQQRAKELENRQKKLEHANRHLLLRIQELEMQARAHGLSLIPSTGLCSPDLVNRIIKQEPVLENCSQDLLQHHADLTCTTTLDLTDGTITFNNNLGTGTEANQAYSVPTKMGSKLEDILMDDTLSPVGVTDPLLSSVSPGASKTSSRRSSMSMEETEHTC
Briefly: TRPM1 promoter luciferase signal decrease, dose response, MITF inhibitor project, cell-based, SK-MEL-5, cherry-picked, set 3 (AID 493073).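 Note: SK-MEL-5 melanoma cells with luciferase driven by the MITF target TRPM1 promoter.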 Type of assay: functional.

For another assay, the target named is T5, Streptokinase A (Streptococcus pyogenes serotype M1, UniProt P10520).
T5 sequence (P10520 whole entry): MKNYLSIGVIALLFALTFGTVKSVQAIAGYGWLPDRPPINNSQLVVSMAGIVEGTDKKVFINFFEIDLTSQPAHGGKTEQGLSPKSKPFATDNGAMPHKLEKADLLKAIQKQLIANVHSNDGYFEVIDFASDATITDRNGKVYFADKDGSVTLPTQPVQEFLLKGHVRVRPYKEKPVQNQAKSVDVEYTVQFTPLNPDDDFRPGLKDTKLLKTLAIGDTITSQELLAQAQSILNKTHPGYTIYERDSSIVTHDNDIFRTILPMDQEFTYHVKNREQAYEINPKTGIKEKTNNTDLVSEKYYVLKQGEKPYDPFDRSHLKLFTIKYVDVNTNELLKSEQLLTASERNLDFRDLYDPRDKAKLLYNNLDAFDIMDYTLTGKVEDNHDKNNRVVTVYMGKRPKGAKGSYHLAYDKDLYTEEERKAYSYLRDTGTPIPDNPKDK
Kind of assay: S. pyogenes streptokinase expression inhibitors, potency, dose response, plasminogen activation absorbance, OD405 (AID 1914).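 Note: secreted streptokinase activity via plasminogen activation per viability signal from cell pellet.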 The class given is functional, Streptococcus pyogenes M1 GAS.

The test system of assay [7] is Streptococcus sp. 'group A'. Briefly: growth inhibition of control SK(-) GAS strain, dose response, counter-screen for streptokinase expression inhibitor project, luminescence, kanamycin, BacTiterGlo, confirmation (AID 1900). The class given is functional, organism-based.
Assay [8] concerns the target T6, Heat shock factor protein 1 (Mus musculus, UniProt P38532).
T6 sequence (P38532 whole entry): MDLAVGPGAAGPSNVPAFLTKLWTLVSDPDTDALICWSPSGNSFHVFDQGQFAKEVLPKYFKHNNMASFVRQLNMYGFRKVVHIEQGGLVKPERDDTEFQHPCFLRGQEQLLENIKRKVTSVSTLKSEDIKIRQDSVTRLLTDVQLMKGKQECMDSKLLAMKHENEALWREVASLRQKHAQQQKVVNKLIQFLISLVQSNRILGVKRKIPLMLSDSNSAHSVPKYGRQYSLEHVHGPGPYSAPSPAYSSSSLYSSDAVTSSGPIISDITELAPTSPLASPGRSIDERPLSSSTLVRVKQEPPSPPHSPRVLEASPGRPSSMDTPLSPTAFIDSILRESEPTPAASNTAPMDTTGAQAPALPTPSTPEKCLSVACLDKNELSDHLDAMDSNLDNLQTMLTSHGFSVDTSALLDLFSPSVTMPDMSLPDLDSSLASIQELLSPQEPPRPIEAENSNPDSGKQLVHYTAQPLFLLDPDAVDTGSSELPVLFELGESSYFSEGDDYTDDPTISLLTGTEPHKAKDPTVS
Kind of assay: inhibition of MG132-induced HSE-luciferase signal, confirmation, cell-based, NIH3T3, luminescence, dose retest (AID 2382).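 Note: NIH3T3 fibroblasts with HSF1-driven luciferase reporter stressed by proteasome inhibitor MG132; luminescence from HSF1-driven luciferase expression after 8 hours of MG132 stress.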 The class given is functional.

A further assay has as its system Streptococcus. Briefly: Group A Streptococcus viability loss, dose response, counter-screen for streptokinase expression inhibitor project, luminescence, BacTiterGlo (AID 1915).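 Note: potency for reduction of bacterial viability or growth.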 Type of assay: functional, organism-based. (A counterscreen serves to expose hits that act by an unwanted route or on another target.)
A short description of assay [9]: growth suppression of beta-catenin-knockout colon cells, dose response, cell-based, HCT116, human colon tumor (AID 1045).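 Note: HCT116 colon tumor cells with beta catenin knocked out; cells exposed to compound for 60 hours.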 The class given is functional.
Assay [10] can be described thus: growth suppression of PTEN-null colon cells, dose response, cell-based, HCT116 PTEN knockout (AID 1047).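 Note: HCT116 colon tumor cells with PTEN knocked out; cells exposed to compound for 60 hours before readout; potency for loss of cell viability measured by luminescence.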 Type of assay: functional.
Assay [11] in a line: cells. The class given is functional, cell-based.
Assay [12] is described as follows: cells. The class given is functional, cell-based. The source holds these as a separate data set.
A short description of assay [13]: Luminescence Cell-Based Dose Retest to Confirm Inhibitors of Cancer Stem Cells. [Related pubchem assays (depositor defined):AID2717, AID2721]. Type of assay: functional. The following applies: Homo sapiens.
The subject of a further assay is INS1. Kind of assay: beta cell apoptosis inhibitors, cytokine rescue, dose response, luminescence, retest (AID 449756).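 Note: cell death triggered by IL-1 beta plus TNF-alpha plus IFN-gamma mixture; protective hits raise ATP signal compared with cytokine alone wells.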 The class given is functional, cell-based. To be noted: Rattus norvegicus.

Calls of active or inactive are those of the source.

T2 sequence (P49327 whole entry, the tested form may be a part): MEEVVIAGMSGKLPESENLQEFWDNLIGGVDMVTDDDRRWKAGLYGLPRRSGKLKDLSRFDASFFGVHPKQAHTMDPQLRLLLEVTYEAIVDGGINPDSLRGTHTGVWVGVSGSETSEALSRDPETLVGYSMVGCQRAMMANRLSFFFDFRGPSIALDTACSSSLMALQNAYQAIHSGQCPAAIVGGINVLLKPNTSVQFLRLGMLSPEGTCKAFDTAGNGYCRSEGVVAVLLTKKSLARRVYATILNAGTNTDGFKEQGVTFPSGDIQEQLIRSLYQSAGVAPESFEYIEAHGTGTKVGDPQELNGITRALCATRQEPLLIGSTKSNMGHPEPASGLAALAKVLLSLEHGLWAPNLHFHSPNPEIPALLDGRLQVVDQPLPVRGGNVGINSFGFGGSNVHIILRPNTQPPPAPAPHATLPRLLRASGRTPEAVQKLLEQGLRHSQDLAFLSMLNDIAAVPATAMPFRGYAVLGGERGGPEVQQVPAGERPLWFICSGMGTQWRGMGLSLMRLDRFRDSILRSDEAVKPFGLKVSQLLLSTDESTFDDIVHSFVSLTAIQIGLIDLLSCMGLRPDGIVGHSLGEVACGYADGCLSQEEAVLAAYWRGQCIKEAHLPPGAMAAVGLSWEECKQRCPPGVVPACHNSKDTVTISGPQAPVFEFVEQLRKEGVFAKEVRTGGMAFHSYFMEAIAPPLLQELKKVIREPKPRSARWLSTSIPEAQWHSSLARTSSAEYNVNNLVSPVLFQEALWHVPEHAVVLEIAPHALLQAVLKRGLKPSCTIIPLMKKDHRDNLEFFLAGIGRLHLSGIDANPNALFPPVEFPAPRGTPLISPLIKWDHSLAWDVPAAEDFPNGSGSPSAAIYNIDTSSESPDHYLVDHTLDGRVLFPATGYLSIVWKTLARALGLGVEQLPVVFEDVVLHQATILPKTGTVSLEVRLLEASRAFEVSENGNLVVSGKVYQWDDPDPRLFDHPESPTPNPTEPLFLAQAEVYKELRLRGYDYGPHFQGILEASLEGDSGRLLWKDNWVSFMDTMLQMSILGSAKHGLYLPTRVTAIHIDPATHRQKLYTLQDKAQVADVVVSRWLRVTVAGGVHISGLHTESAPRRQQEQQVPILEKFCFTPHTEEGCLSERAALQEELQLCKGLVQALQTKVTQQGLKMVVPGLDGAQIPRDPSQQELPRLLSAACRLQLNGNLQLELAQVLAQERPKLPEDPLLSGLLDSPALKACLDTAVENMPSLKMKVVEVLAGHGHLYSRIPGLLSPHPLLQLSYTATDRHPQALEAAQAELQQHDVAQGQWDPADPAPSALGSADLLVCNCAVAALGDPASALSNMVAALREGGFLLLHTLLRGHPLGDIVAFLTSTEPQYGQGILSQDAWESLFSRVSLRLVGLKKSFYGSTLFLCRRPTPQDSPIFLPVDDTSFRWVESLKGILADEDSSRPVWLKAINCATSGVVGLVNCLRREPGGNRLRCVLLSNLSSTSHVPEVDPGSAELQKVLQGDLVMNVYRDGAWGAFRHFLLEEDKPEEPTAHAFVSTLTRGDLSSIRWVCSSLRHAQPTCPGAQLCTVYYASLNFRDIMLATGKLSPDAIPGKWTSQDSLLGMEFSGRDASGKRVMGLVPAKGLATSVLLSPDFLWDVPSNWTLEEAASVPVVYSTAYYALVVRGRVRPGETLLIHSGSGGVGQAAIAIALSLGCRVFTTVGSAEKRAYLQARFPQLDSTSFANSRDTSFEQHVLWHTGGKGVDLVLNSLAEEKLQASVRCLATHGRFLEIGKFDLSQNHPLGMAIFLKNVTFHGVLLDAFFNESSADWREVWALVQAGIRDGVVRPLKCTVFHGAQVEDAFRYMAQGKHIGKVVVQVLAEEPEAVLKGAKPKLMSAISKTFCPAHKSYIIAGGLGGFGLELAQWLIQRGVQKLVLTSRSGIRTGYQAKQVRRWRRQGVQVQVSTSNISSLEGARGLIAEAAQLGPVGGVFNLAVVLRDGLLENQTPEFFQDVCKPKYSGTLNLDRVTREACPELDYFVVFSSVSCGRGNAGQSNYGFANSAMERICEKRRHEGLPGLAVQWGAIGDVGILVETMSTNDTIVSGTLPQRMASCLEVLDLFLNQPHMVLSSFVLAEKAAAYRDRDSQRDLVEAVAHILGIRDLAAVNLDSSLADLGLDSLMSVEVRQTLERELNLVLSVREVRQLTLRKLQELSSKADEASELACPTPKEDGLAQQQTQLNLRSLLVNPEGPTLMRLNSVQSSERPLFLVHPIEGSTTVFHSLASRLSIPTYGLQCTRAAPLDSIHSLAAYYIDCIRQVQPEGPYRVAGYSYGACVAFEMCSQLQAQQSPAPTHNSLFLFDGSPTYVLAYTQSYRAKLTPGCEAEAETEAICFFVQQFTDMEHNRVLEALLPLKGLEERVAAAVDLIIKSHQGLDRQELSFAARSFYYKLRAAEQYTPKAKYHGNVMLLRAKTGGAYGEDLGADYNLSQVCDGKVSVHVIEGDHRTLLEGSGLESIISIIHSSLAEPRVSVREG

With `COC(=O)CSc1nnc(-c2ccc(NS(=O)(=O)c3ccccc3)cc2)o1`, the IC50 in assay [1] is 12 µM (active).

As to `Cc1ccc(C(=O)NCC(=O)OCc2nnc(-c3ccc([N+](=O)[O-])cc3)o2)cc1`, the values for the 50% inhibitory concentration (IC50) at Fatty acid synthase [2] and at Fatty acid synthase [3] were 5.56 µM (active) and 4.73 µM (active), respectively.

As for `COc1ccc(C2=CC3=C(Br)C(=O)C(C)(O)C(=O)C3=CO2)cc1` (stereo unspecified), the concentration at half-maximal activity (AC50) in [4] was 2.62 µM (active).

For the compound `CC(=O)NC(C)c1cc(Cl)c2ccccc2c1O` (stereo unspecified), the IC50 in assay [5] was > 20 µM (inactive).

Regarding `CCN1c2ccccc2NC2C1C(C(C)=O)C(=O)N2c1ccc(Cl)cc1` (stereo unspecified), in assay [6], the concentration at half-maximal activity (AC50) is 12.7 µM (active).

Take `O=C(N/N=C/c1ccccn1)c1cc(-c2ccccc2Cl)n[nH]1`: the IC50 in assay [5] is > 20 µM (inactive).

As to `Cc1ccc(N/N=C(\C=O)C(=O)c2ccc(Cl)cc2)cc1`, the EC50 is > 50 µM (not active) at Streptokinase A, 8.86 µM (active) in assay [7], 4.78 µM (active) in assay [8] and 14.8 µM (active) with Streptococcus. Also, the concentration at half-maximal activity (AC50) in [4] is 5.6 µM (active).

In the case of `Cc1ccc(C(=O)N2CCN(c3ccccc3)CC2)cc1S(=O)(=O)N1CCCC1`, the IC50 in assay [1] is 11 µM (active).

As for `CC(=O)c1cc(C#N)c(SCCC(C)C)nc1C`, the IC50 is 9.54 µM (active) at Fatty acid synthase [2] and 9.77 µM (active) at Fatty acid synthase [3].

As to `Cc1ccc(C(C)C)c(OCCOCCN2CCNCC2)c1`, in assay [1], the IC50 is 13.8 µM (active).

With `Cc1nn(Cc2ccc([N+](=O)[O-])cc2)c(=O)n1-c1cccc(Cl)c1`, the IC50 is 8.36 µM (active) at Fatty acid synthase [2] and 5.54 µM (active) on Fatty acid synthase [3].

As for `O=C(CCC1CCCC1)NCCCNC(=O)CCC1CCCC1`, in assay [1], the 50% inhibitory concentration (IC50) was 15.8 µM (active).

In the case of `CC1=C(C(=O)OCc2ccccc2)C(/C=C/c2ccccc2)NC(S)=N1` (stereo unspecified), in assay [4], the AC50 is 4.08 µM (active).

As for `C=CC(n1cncn1)C(O)(c1ccccc1)c1ccccc1` (stereo unspecified), the AC50 in [4] was 0.826 µM (active).

Regarding `Cn1c(SCC(=O)Nc2ncc(C(F)(F)F)cc2Cl)nnc1-c1ccc(Cl)cc1`, the EC50 in assay [8] is > 195 µM (not active). Further, the IC50 on Fatty acid synthase [2] was 0.572 µM (active); on Fatty acid synthase [3], 0.551 µM (active).

For `CCN(CCO)C1CC(=O)N(c2ccccc2C)C1=O` (stereo unspecified), in assay [4], the half-maximal activity concentration (AC50) is 2.14 µM (active).

`COc1ccc([N+](=O)[O-])cc1NC(=O)N(C)Cc1ccco1`: the IC50 on Fatty acid synthase [2] was 21.1 µM (inactive); on Fatty acid synthase [3] it was 17.7 µM (active).

Regarding `CCN(CC)S(=O)(=O)c1cccc(C(=O)NCC(c2ccccc2)N(C)C)c1` (stereo unspecified), the half-maximal activity concentration (AC50) in assay [4] is 3.2 µM (active).

Consider `Cc1cc(C2N=C(N)Nc3nc4ccccc4n32)c(C)n1-c1ccccc1Cl` (stereo unspecified), for which the EC50 was 23.4 µM (active) in assay [9] and 30.1 µM (active) in assay [10]. For the same compound, the IC50 in assay [5] was > 20 µM (inactive).

For `CCS(=O)(=O)C1=NSC2=NC(=O)/C(=C\c3ccc(OS(=O)(=O)c4ccccc4)c(OC)c3)C(=N)N21`, the IC50 in [1] was 13.5 µM (active).

Consider `Cc1cccc(C)c1/N=C1\C(Cl)=C(O)OC1OC(=O)c1ccccc1` (stereo unspecified), for which the IC50 on Fatty acid synthase [2] is 4.54 µM (active); on Fatty acid synthase [3], 4.46 µM (active).

As for `COc1ccc(OCCCC(=O)Nc2ccc(S(=O)(=O)N3CCOCC3)cc2)cc1`, the IC50 in [5] is > 20 µM (inactive).

In the case of `COc1ccc2nc(C)cc(SCC(=O)N/N=C/c3ccc(O)cc3O)c2c1`, the half-maximal effective concentration (EC50) in the assay “cells [11]” is 12.9 µM (active); in “cells [12]” it was > 350 µM (not active). For the same compound, the AC50 was 2.74 µM (active) in assay [13], 2.65 µM (active) in the assay on INS1 and 10.1 µM (active) in [6].

Regarding `COc1ccccc1/C=C1\SC(=O)N(CC(=O)NCCCn2ccnc2)C1=O`, the IC50 in assay [1] was 19.1 µM (active).

What is called IC50 is the concentration at which inhibition is half-maximal. For orientation: AC50 means the concentration giving half of the maximal activity seen. The EC50 is the concentration needed to bring the measured effect to its halfway point.
